Assay results taken from US20190316085A1, “Methods Of T-Lymphocyte Expansion” (Cambridge Enterprise Limited, priority 2015, published 2019).

Columns and labels:
CD8^+ T-lymphocytes [1] = assay: Flow cytometric characterisation of phenotypic markers; type: cell-based, mouse; details: 7 days
Excerpt: Gated on live CD8^+ cells. Each dot represents an individual mouse.
Associated statistics are shown and each pair of dots represents an individual mouse. Gated on live, CD8^+GFP^+ cells.
Cells were stained and acquired on a Fortessa (BD Biosciences). The following fluorophores and fluorophore-conjugated antibodies were used: anti-CD62L (Biolegend, MEL-14), anti-CD44 (Biolegend, IM7), anti-CD8a (Biolegend, 53-6.7), anti-CD45.1 (Biolegend, A20), anti-CD45.2 (Biolegend, 104), anti-CD127 (Biolegend, A7R34), anti-KLRG1 (Biolegend, 2F1/KLRG1), anti-CD19 (Biolegend, 6D5), anti-Bcl-2 (Biolegend, BCL/10C4), Eomes (eBioscience, Danlimag), PD-1 (Biolegend, 29F.1A12), […], H-2Kb/SIINFEKL Pentamer-PE (Proimmune, F093-2A), CFSE (Life Technologies), LIVE/DEAD Violet (Life Technologies), PI-AnnexinV (Biolegend, 640928), anti-Bcl-xl-PE (Cell Signalling Technologies, 54H6). For staining of nuclear-located marker Eomes, the Transcription Factor Staining Buffer Set (eBioscience) was used, according to the manufacturer's instructions. For staining of intracellular cytokines, OT-I cells were re-stimulated with SIINFEKL peptide for 4 h with GolgiStop solution (BD). For ^1H-NMR experiments, CD8^+ T-lymphocytes were sorted from total splenocytes by immunostaining with anti-mouse CD8-AF647 (Biolegend) on a MoFlo (Beckman Coulter). Cells were then activated and cultured as described above. For staining of human T cells, CD8^+ T cells were incubated at 37 C for 30 minutes in the presence of anti-CCR7 antibody (eBioscience 12-1979-41), followed by staining with anti-CD45RO antibody (Biolegend, UCHL1).

EG7-OVA tumours = assay: Adoptive cellular immunotherapy experiments; type: in vivo, mouse; details: i.v.
Description: Mice were lymphodepleted with sub-lethal irradiation before receivening intravenous injection of OT-I CD8^+ T-lymphocytes. Error bars denote s.e.m. *p<0.05, ns=non-significant.
Error bars denote s.e.m. *p<0.05, ns=non-significant.
For adoptive cell therapy experiments, OT-I CD8^+ T-lymphocytes were activated with 1000 nM SIINFEKL peptide in the presence of IL-2 and vehicle or 300 μM S-2HG-octyl ester. After 48 h CD8^+ T-cells were purified by negative selection and cultured for a further 7 days in the presence of IL-2 and vehicle or 300 μM S-2HG-octyl ester. OT-I cells were transferred intravenously into tumour-bearing C57BL/6J lymphodepleted or lymphoreplete mice with 9-12 day established EG7-OVA tumours.

OT-I CD8^+ T-lymphocytes [2] = assay: In vivo persistence experiments; design: species or system mouse
Description: Flow cytomotery plots are gated on live cells.
Total splenocytes from OT-I CD45.1^+ mice were activated with 1000 nM SIINFEKL peptide in the presence of IL-2 and vehicle or 300 μM S-2HG-octyl ester. After 48 h CD8^+ T-cells were purified by negative selection and cultured for 7 days in the presence of IL-2 and vehicle or 300 μM S-2HG-octyl ester. 1 million CD45.1^+CD8^+ cells were then injected intravenously into C57BL/6J wild type CD45.2.2 host mice. 30 days later, host mice were sacrificed to assess the persistence of transferred cells in the spleen. Absolute numbers of cells were determined with the use of counting beads (CountBright, Life Technologies).

OT-I CD8^+ T-lymphocytes [3] = assay: Homeostatic proliferation after co-transfer into sub-lethally irradiated hosts; type: in vivo, mouse
Description: CD45.1.1 or CD45.1.2 OT-I CD8^+ T-lymphocytes were activated with 1000 nM SIINFEKL peptide and cultured with or without 300 μM S-2HG-octyl ester for 9 days. Cells from each group were mixed 1:1 and labelled with CFSE prior to transfer into sub-lethally irradiated CD45.2.2 mice. 7 days later, mice were sacrificed and the presence of CD451.1 and CD45.1.2 CD8^+ T-lymphocytes was enumerated in spleen by flow cytometry. Representative flow cytometry plots are shown for each pool before and after adoptive transfer. Flow cytometry plots show viable CD8^+ cells.
Total splenocytes from OT-I CD45.1/CD45.1 and OT-I CD45.1/CD45.2 mice were activated with 1000 nM SIINFEKL peptide in the presence of IL-2 and vehicle or 300 μM S-2HG-octyl ester. After 48 h CD8^+ T-cells were purified by negative selection and cultured for a further 7 days in the presence of IL-2 and vehicle or 300 μM S-2HG-octyl ester. Vehicle and S-2HG-treated cells were then mixed 1:1 and labelled with CFSE, followed by intravenous injection into sub-lethally irradiated CD45.2/CD45.2 hosts. 7 days later, spleens were harvested and analysed by flow cytometry. Absolute numbers of cells were determined with the use of counting beads (CountBright, Life Technologies)

OT-I CD8^+ T-lymphocytes [4] = assay: Recall experiments with co-transferred cells; type: in vivo, mouse; details: cells pre-treated with 300 μM S-2HG-octyl ester; spleen, lymphnodes, liver, day 37 post transfer
Description: CD45.1.1 or CD45.1.2 OT-I CD8^+ T-lymphocytes were activated with 1000 nM SIINFEKL peptide and cultured with or without 300 μM S-2HG-octyl ester for 9 days. Cells from each group were mixed 1:1 prior to transfer into CD45.2.2 mice. 30 days later, these recipient mice were vaccinated with SIINFEKL-loaded dendritic cells to induce recall and the presence of CD451.1 and CD45.1.2 CD8^+ T-lymphocytes was enumerated in spleen, lymphnodes and liver by flow cytometry 7 days later.

CD8^+ T-lymphocytes [5] = assay: qRT-PCR of differentiation, memory and pluripotency associated genes; type: cell-based, mouse; details: 0.5 mM, 1 day or 7 days, with IL2
Description: FIGS. 8E, 8F and 8G show expression of II2(8E), Ifng (8F), and Eomes (8G) mRNA in CD8^+ T-lymphocytes activated for 48 h with αCD3+αCD28 antibodies and then expanded for a further 2 days in the presence of IL-2. Cells were then treated for either 24 h or 7 days with or without 0.5 mM S-2HG-octyl ester or R-2HG-octyl ester. n≥4 mice per group.
Activated CD8^+ T-lymphocytes were treated with 0.5 mM of either S-2HG-octyl ester or R-2HG-octyl ester for 1 day or 7 days in the presence of IL2. The induction seen with R-2HG-octyl ester is weaker than with S-2HG-octyl ester. Each dot represents an individual donor mouse, n=4 mice. error bars denote the s.d.
RNA was isolated using the RNeasy kit (Qiagen). 1 μg of RNA was used for cDNA synthesis with the First-Strand Synthesis kit (Invitrogen). All samples were run in technical triplicates using a StepOnePlus system (Applied Biosystems) with SYBR green.

[6] = system: OT-I CD8^+CD45.1^+ T-lymphocytes; assay: In vivo memory recall experiment (adoptive transfer, vaccination); design: species or system mouse; details: 0.5 mM, 7 days with IL-2 (FIGS. 13, 16, 17)
Description: FIGS. 13B and 13C show representative flow cytometry plots of (B) CD8^+CD45.1^+ (C) or Kb/SIINFEKL Pentamer^+CD45.1^+ T-lymphocytes, in the spleens of vaccinated litter mate CD45.2 mice, 37 days after adoptive transfer of SIINFEKL-activated OT-I CD8^+CD45.1^+ T-lymphocytes, expanded with 0.5 mM S-2HG-octyl ester, 0.5 mM R-2HG-octyl ester or vehicle in the presence of IL-2 for 7 days. FIGS. 13D-F show (13D) the number of recovered CD45.1^+CD8^+ T-lymphocytes per spleen and (13E) % CD45.1^+ cells of the total CD8^+ population in each spleen or (13F) number of recovered Kb/SIINFEKL Pentamer^+CD45.1^+ T-lymphocytes per spleen 7 days after vaccination (37 days after the CD8+ T-cells were transferred into the mice). n=6 mice per group and error bars denote the s.e.m.
Total splenocytes from OT-1 CD45.1^+ mice were activated with 1000 nM SIINFEKL peptide in the presence of IL-2 and vehicle, 0.5 mM S-2HG-octyl ester or 0.5 mM R-2HG-octyl ester for 7 days. 1 million CD45^+CD8^+ cells were then injected intravenously into C57/B6 wild type CD45.2^+ host mice. 30 days later, host mice were vaccinated i.p. with SIINFEKL-loaded dendritic cells. 7 days later, spleens were harvested from host mice and the presence of CD45.1^+CD8^+ and Kb/SIINFEKL Pentamer+cells was determined by flow cytometry. Absolute numbers of cells were determined with the use of counting beads (CountBright, Life Technologies). Dendritic cells were prepared from bone marrow extracted from wild type C57/B6 mice. Bone marrow derived cells were cultured in non-TC treated petri dishes in RPMI-1640 medium containing 2 mM glutamine, 10% FBS, 25 mM HEPES, pH 7.2, 1% penicillin-streptomycin, 55 μM […] supplemented 20 ng/ml mGM-CSF (R&D Systems). After 8 days of culture, dendritic cells were activated with 1 μg/ml LPS (Sigma) for 24 h. The maturation of dendritic cells was confirmed by flow cytometry using the following markers: MHC class II-APC, CD11b-AF488, CD11c-AF488 and CD86-PE/Cy7 (Biolegend). Mature dendritic cells were then loaded with 2 μM SIINFEKL peptide at 37° C. for 1 hour. After peptide loading, dendritic cells were detached with 3 mM EDTA in PBS for 5-10 min at 37° C. and washed with PBS. For vaccination, 1 million peptide-loaded dendritic cells were injected i.p. per mouse in 100 μl PBS.

CD8^+ T-lymphocytes [7] = assay: Flow cytometry of CD44 and CD62L surface expression; type: cell-based, mouse; details: 0.5 mM, with IL-2; antigen specific (OT-I) and polyclonal CD8+ T-lymphocytes
Excerpt: Data are representative of n=4 individual mice.
Data are representative of 3 mice per genotype.
Data are representative of 2 mice per genotype.
Data are representative of n=3 individual mice.
Cells were stained and acquired on a Fortessa (BD Biosciences). […] For staining of nuclear-located marker Eomes, the Transcription Factor Staining Buffer Set (eBioscience) was used, according to the manufacturer's instructions. For staining of intracellular cytokines, OT-I cells were re-stimulated with […] peptide for 4 h with GolgiStop solution (BD). For ^1H-NMR experiments, CD8^+ T-lymphocytes were sorted from total splenocytes by immunostaining with anti-mouse CD8-AF647 (Biolegend) on a MoFlo (Beckman Coulter). Cells were then activated and cultured as described above.

[8] = 500 μM S-2HG-octyl ester, HIF-1α-independent

Structure (SMILES)	proportion of KLRG1^High cells (CD8^+ T-lymphocytes [1]; 300 μM S-2HG-octyl ester, 21% oxygen, empty or L2hgdh-FLAG vector)	PD-1 expression (CD8^+ T-lymphocytes [1]; 500 μM S-2HG-octyl ester)	41BB expression (CD8^+ T-lymphocytes [1]; [8])	CD44 expression (CD8^+ T-lymphocytes [1]; [8])	CD127 expression (CD8^+ T-lymphocytes [1]; [8])	Eomes expression (flow cytometry) (CD8^+ T-lymphocytes [1]; [8])	control of tumour growth in lymphodepleted tumour-bearing mice (EG7-OVA tumours; 0.7×10^6 OT-I cells cultured with S-2HG-octyl ester, 12 day tumours)	control of tumour growth in lymphoreplete tumour-bearing mice (EG7-OVA tumours; 1.0×10^6 OT-I cells cultured with S-2HG-octyl ester, 9 day tumours)	persistence of adoptively transferred cells (OT-I CD8^+ T-lymphocytes [2]; cells pre-treated with 300 μM S-2HG-octyl ester, spleen, 30 days after transfer)	Bcl-2 level of recovered cells relative to naïve cells (OT-I CD8^+ T-lymphocytes [2]; day 30 after transfer)	CD44 level of recovered cells relative to naïve cells (OT-I CD8^+ T-lymphocytes [2]; day 30 after transfer)	CD127 level of recovered cells relative to naïve cells (OT-I CD8^+ T-lymphocytes [2]; day 30 after transfer)	homeostatic proliferation of transferred cells (OT-I CD8^+ T-lymphocytes [3]; cells pre-treated with 300 μM S-2HG-octyl ester 9 days, 7 days after transfer, spleen)	transferred cells dividing >5 times in vivo (OT-I CD8^+ T-lymphocytes [3]; cells pre-treated with 300 μM S-2HG-octyl ester, CFSE, day 7)	recall response to vaccination with SIINFEKL-loaded dendritic cells (OT-I CD8^+ T-lymphocytes [4])	expression of pluripotency associated genes (Oct3/4, Sox2, Nanog, Klf4) (CD8^+ T-lymphocytes [5])	formation of memory cells after in vitro treatment of CD8+ T-cells [6]	formation of a CD62L^high CD44^high population (CD8^+ T-lymphocytes [7])	formation of memory cells after in vitro treatment of CD8+ T-cells ([6]; listed as alpha ketoglutarate)
O=C(O)CC[C@H](O)C(=O)O [S-2HG, S-2-hydroxyglutarate]	decreased	less	more	more	more	more	more proficient at controlling tumour growth	more proficient at controlling tumour growth	dramatically enhanced persistence	elevated	elevated	elevated	greater homeostatic proliferation	more cells dividing >5 times	superior recall response	induces the expression	–	–	–
COC(=O)CCC(=O)OC [dimethylsuccinate]	–	–	–	–	–	–	–	–	–	–	–	–	–	–	–	–	induces the formation	induce the formation	–
CCCCCCCCOC(=O)C(=O)CCC(=O)O [α-ketoglutarate octyl ester, reference compound]	–	–	–	–	–	–	–	–	–	–	–	–	–	–	–	–	does not induce the formation	not observed	does not provide good activity
